Assays:
Experiment in all cases: area over the GR curve, 72 h; higher = more effect;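 also: Dye Drop or Deep Dye Drop imaging of viable cells in 384-well plates (Hoechst nuclei, LIVE/DEAD dye), nine half-log doses, GR normalized to DMSO controls and time-zero plates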
UACC812 = system: UACC812
MCF12A = system: MCF12A
SUM159 = system: SUM159
EVSAT = system: EVSAT
BT549 = system: BT549
MDAMB436 = system: MDAMB436
MDAMB231 = system: MDAMB231
PDXHCI002 = system: PDXHCI002
MDAMB175VII = system: MDAMB175VII
T47D = system: T47D
MDAMB453 = system: MDAMB453
HCC1954 = system: HCC1954

Row | Structure (SMILES) | area over the GR curve (UACC812) | area over the GR curve (MCF12A) | area over the GR curve (SUM159) | area over the GR curve (EVSAT) | area over the GR curve (BT549) | area over the GR curve (MDAMB436) | area over the GR curve (MDAMB231) | area over the GR curve (PDXHCI002) | area over the GR curve (MDAMB175VII) | area over the GR curve (T47D) | area over the GR curve (MDAMB453) | area over the GR curve (HCC1954)
1 | CCC(=O)Nc1ccc(C(=O)Nc2ccc(Nc3ncc4c(n3)N(C)c3ccc(C)cc3C(=O)N4C)cc2)cc1 [FMF-03-145-1] | 1.04 GR | 0.345 GR | 0.476 GR | 1 GR | 1.02 GR | 0.465 GR | 0.947 GR | 0.915 GR | 0.919 GR | 0.979 GR | 0.392 GR | 1.15 GR
2 | COc1cc(N2CCN(C)CC2)ccc1Nc1ncc2c(n1)N(C)c1ccccc1C(=O)N2CC(F)(F)F [FMF-03-146-1] | 0.0144 GR | 0.0258 GR | 0.0317 GR | -0.0034 GR | 0.0127 GR | -0.005 GR | 0.0225 GR | -0.0147 GR | 0.0733 GR | 0.0652 GR | 0.0207 GR | 0.0296 GR
3 | CN1CC[C@H](c2c(O)cc(O)c3c(=O)cc(-c4ccccc4Cl)oc23)[C@H](O)C1 [Flavopiridol] (max 1 µM) | 0.419 GR | 0.167 GR | 0.256 GR | 0.157 GR | 0.257 GR | 0.224 GR | 0.286 GR | 0.278 GR | 0.413 GR | 0.274 GR | 0.272 GR | 0.313 GR
4 | CC(C)n1nc(-c2ccc3oc(N)nc3c2)c2c(N)ncnc21 [INK128/MLN0128] (max 3.162 µM) | 1.22 GR | 0.495 GR | 0.356 GR | 0.691 GR | 0.534 GR | 0.429 GR | 0.486 GR | 0.122 GR | 1.17 GR | 0.689 GR | 0.756 GR | 0.565 GR
5 | CC(C)NC[C@@H](C(=O)N1CCN(c2ncnc3c2[C@H](C)C[C@H]3O)CC1)c1ccc(Cl)cc1 [Ipatasertib/GDC0068] (max 10 µM) | 0.173 GR | 0.0679 GR | 0.0758 GR | 0.463 GR | 0.173 GR | 0.104 GR | 0.0065 GR | -0.114 GR | 0.456 GR | 0.428 GR | 0.27 GR | 0.214 GR
6 | CN(C)C(=O)c1cc2cnc(Nc3ccc(N4CCNCC4)cn3)nc2n1C1CCCC1 [LEE011/Ribociclib] (max 10 µM) | 0.642 GR | 0.0926 GR | 0.244 GR | 0.12 GR | 0.0102 GR | -0.012 GR | 0.365 GR | 0.123 GR | 0.8 GR | 0.668 GR | 0.555 GR | 0.309 GR
7 | CCNC(=O)c1noc(-c2cc(C(C)C)c(O)cc2O)c1-c1ccc(CN2CCOCC2)cc1 [Luminespib/NVP-AUY922] (max 1 µM) | 0.881 GR | 0.619 GR | 0.53 GR | 0.68 GR | 0.612 GR | 0.633 GR | 0.645 GR | 0.7 GR | 0.774 GR | 0.51 GR | 0.848 GR | 0.601 GR
8 | CCOc1cc2ncc(C#N)c(Nc3ccc(OCc4ccccn4)c(Cl)c3)c2cc1NC(=O)/C=C/CN(C)C [Neratinib/HKI272] (max 3.162 µM) | 1.03 GR | 0.194 GR | 0.101 GR | 0.0683 GR | 0.0779 GR | 0.188 GR | 0.105 GR | 0.367 GR | 1.45 GR | 0.274 GR | 0.553 GR | 0.429 GR
9 | O=C(c1cc(Cc2n[nH]c(=O)c3ccccc23)ccc1F)N1CCN(C(=O)C2CC2)CC1 [Olaparib/AZD2281] (max 10 µM) | -0.0835 GR | 0.0468 GR | 0.0296 GR | 0.0599 GR | 0.0657 GR | 0.305 GR | 0.0581 GR | 0.167 GR | 0.0102 GR | 0.0229 GR | 0.241 GR | 0.0536 GR
10 | CC(=O)O[C@H]1C(=O)[C@@]2(C)[C@H]([C@H](OC(=O)c3ccccc3)[C@]3(O)C[C@H](OC(=O)[C@H](O)[C@@H](NC(=O)c4ccccc4)c4ccccc4)C(C)=C1C3(C)C)[C@]1(OC(C)=O)CO[C@@H]1C[C@@H]2O [Paclitaxel] (max 1 µM) | 1.44 GR | 0.586 GR | 0.65 GR | 0.844 GR | 0.699 GR | 0.708 GR | 0.702 GR | 0.921 GR | 0.837 GR | 0.661 GR | 0.658 GR | 0.827 GR
11 | CS(=O)(=O)N1CCN(Cc2cc3nc(-c4cccc5[nH]ncc45)nc(N4CCOCC4)c3s2)CC1 [Pictilisib/GDC0941] (max 10 µM) | 0.6 GR | 0.089 GR | 0.129 GR | 0.387 GR | 0.208 GR | 0.133 GR | 0.206 GR | 0.212 GR | 0.417 GR | 0.477 GR | 0.391 GR | 0.309 GR
12 | O=C1NC(=NCc2cccs2)SC1=Cc1ccc2ncccc2c1 [R0-3306] (max 10 µM) | 0.142 GR | 0.041 GR | 0.0665 GR | 0.115 GR | 0.12 GR | 0.0623 GR | 0.0059 GR | 0.0778 GR | 0.239 GR | 0.14 GR | 0.102 GR | 0.0716 GR
13 | CNCc1ccc(-c2[nH]c3cc(F)cc4c3c2CCNC4=O)cc1 [Rucaparib] (max 10 µM) | 0.0535 GR | 0.0783 GR | 0.0948 GR | 0.0455 GR | 0.0437 GR | 0.399 GR | 0.0793 GR | 0.0896 GR | 0.136 GR | 0.0635 GR | 0.14 GR | 0.059 GR
14 | CC1(N)CCN(c2cnc(-c3cccc(Cl)c3Cl)c(N)n2)CC1 [SHP099] (max 10 µM) | 0.151 GR | 0.0144 GR | 0.0503 GR | -0.0008 GR | 0.0349 GR | -0.0036 GR | -0.0083 GR | 0.0735 GR | 0.238 GR | 0.0099 GR | 0.0286 GR | 0.0791 GR
15 | CN1CCN(CCOc2cc(OC3CCOCC3)c3c(Nc4c(Cl)ccc5c4OCO5)ncnc3c2)CC1 [Saracatinib/AZD0530] (max 10 µM) | 0.875 GR | 0.0317 GR | 0.0365 GR | 0.203 GR | 0.0348 GR | 0.0385 GR | 0.269 GR | 0.512 GR | 0.762 GR | 0.171 GR | 0.0491 GR | 0.191 GR
16 | Cc1cc(C(C)Nc2ccccc2)c2nc(N3CCOCC3)cc(=O)n2c1 (configuration not stated) [TGX221] (max 10 µM) | 0.523 GR | -0.0153 GR | -0.0235 GR | 0.254 GR | 0.0568 GR | -0.0103 GR | 0.0141 GR | -0.0291 GR | -0.0733 GR | -0.0193 GR | -0.0643 GR | -0.0656 GR
17 | CN(C)C/C=C/C(=O)Nc1ccc(C(=O)Nc2cccc(Nc3ncc(Cl)c(-c4c[nH]c5ccccc45)n3)c2)cc1 [THZ1] (max 1 µM) | 0.0711 GR | 0.256 GR | 0.161 GR | 0.251 GR | 0.381 GR | 0.196 GR | 0.356 GR | 0.527 GR | 0.487 GR | 0.446 GR | 0.553 GR | 0.31 GR
18 | CN(C)C/C=C/C(=O)Nc1ccc(C(=O)N2CCC[C@@H](Nc3ncc(Cl)c(-c4c[nH]c5ccccc45)n3)C2)cc1 [THZ531] (max 1 µM) | 0.0619 GR | 0.0965 GR | 0.0413 GR | 0.0912 GR | 0.174 GR | 0.158 GR | 0.205 GR | 0.352 GR | 0.567 GR | 0.229 GR | 0.537 GR | 0.143 GR
19 | CN(C)C/C=C/C(=O)Nc1ccc(C(=O)Nc2cccc(Nc3cc(-c4c[nH]c5ccccc45)ncn3)c2)cc1 [THZ-P1-2] (max 10 µM) | 0.0711 GR | 0.0465 GR | 0.127 GR | 0.127 GR | 0.124 GR | 0.272 GR | 0.163 GR | 0.153 GR | 0.458 GR | 0.353 GR | 0.533 GR | 0.114 GR
20 | Cc1nc(-c2cn3c(n2)-c2ccc(-c4cnn(C(C)(C)C(N)=O)c4)cc2OCC3)n(C(C)C)n1 [Taselisib/GDC0032] (max 10 µM) | 0.693 GR | 0.263 GR | 0.399 GR | 0.412 GR | 0.223 GR | 0.173 GR | 0.254 GR | 0.374 GR | 1.32 GR | 0.899 GR | 1.01 GR | 0.949 GR
21 | O=C1NC(=O)[C@@H](c2cn3c4c(cccc24)CCC3)[C@@H]1c1c[nH]c2ccccc12 [Tivantinib/ARQ197] (max 10 µM) | 0.667 GR | 0.374 GR | 0.403 GR | 0.443 GR | 0.344 GR | 0.421 GR | 0.323 GR | 0.528 GR | 0.531 GR | 0.365 GR | 0.404 GR | 0.544 GR
22 | Nc1ccc(-c2ccc3ncc4ccc(=O)n(-c5cccc(C(F)(F)F)c5)c4c3c2)cn1 [Torin2] (max 1 µM) | 0.9 GR | 0.327 GR | 0.295 GR | 0.511 GR | 0.49 GR | 0.337 GR | 0.386 GR | 0.0743 GR | 1.04 GR | 0.522 GR | 0.679 GR | 0.55 GR
23 | CC[C@@H]1C(=O)N(C)c2cnc(Nc3ccc(C(=O)N[C@H]4CC[C@H](N5CCN(CC6CC6)CC5)CC4)cc3OC)nc2N1C(C)C [Volasertib/BI6727] (max 1 µM) | 0.734 GR | 0.321 GR | 0.392 GR | 0.666 GR | 0.568 GR | 0.662 GR | 0.584 GR | 0.831 GR | 0.449 GR | 0.385 GR | 0.488 GR | 0.611 GR
24 | O=C(CCCCCCC(=O)Nc1ccccc1)NO [Vorinostat] (max 10 µM) | 0.393 GR | 0.0874 GR | 0.148 GR | 0.19 GR | 0.189 GR | 0.163 GR | 0.282 GR | 0.545 GR | 0.445 GR | 0.146 GR | 0.263 GR | 0.234 GR
25 | C=CC(=O)Nc1ccc(C(=O)Nc2[nH]nc3c2CN(C(=O)N[C@H](CN(C)C)c2ccccc2)C3(C)C)cc1 [YKL-5-124] (max 10 µM) | 1.02 GR | 0.803 GR | 0.857 GR | 0.911 GR | 0.869 GR | 0.584 GR | 0.878 GR | 0.849 GR | 0.989 GR | 0.872 GR | 0.834 GR | 0.969 GR
26 | CN1CCN(C(=O)c2ccc3cc(CCNc4ncnc5ccc(C#N)cc45)ccc3c2)CC1 [senexin b] (max 10 µM) | 0.421 GR | 0.11 GR | 0.0855 GR | 0.0803 GR | 0.181 GR | 0.0859 GR | 0.0788 GR | -0.125 GR | 0.427 GR | 0.322 GR | 0.193 GR | 0.327 GR

— the supplement of paper PMC9663587
